Reference: patent US12077503B2, “Substituted cyclic amides and their use as herbicides” (FMC CORPORATION, priority 2015, dated 2024)

Columns and labels:
Type in all cases: in vivo
[1] = test system: bearded sprangletop (Leptochloa fascicularis); test: Test F flooded paddy test; set-up: key: 0 = no effect, 100 = complete control; settings: Flood
From the text: (§1) Plant species in the flooded paddy test consisted of one stand of 9 or 10 water seeded rice seedlings (Rice, W. S. Jap, Oryza sativa cv. ‘Japonica—M202’ or Rice, W. S. Ind, ‘Indica’), and two stands of 3 or 4 transplanted rice seedlings (Oryza sativa cv. ‘Japonica—M202’), Monochoria (Monochoria vaginalis), sedge, umbrella (small-flower umbrella sedge, Cyperus difformis), hardstem bulrush (Scirpus juncoides), redstem (purple redstem, Ammannia coccinea), rice flatsedge (Cyperus iria), bearded sprangletop (Leptochloa fascicularis), barnyardgrass (Echinochloa crus-galli), waterplantain (common waterplantain, Alisma plantago-aquatica), and late watergrass (Echinochloa oryzicola) grown to the 2 to 2.5 leaf stage for testing. Potted plants were grown in a greenhouse with day/night temperature settings of 30/27° C., and supplemental balanced lighting was provided to maintain a 16-hour photoperiod. At time of treatment, test pots were flooded to 3 cm above the soil surface, treated by application of test compounds directly to the paddy water, and then maintained at that water depth for the duration of the test. Effects of treatments on rice and weeds were visually evaluated by comparison to untreated controls after 21 d. Plant response ratings, summarized in Table F, are based on a scale of 0 to 100 where 0 is no effect and 100 is complete control. A dash (-) response means no test result.

[2] = test system: barnyardgrass (Echinochloa crus-galli); test: Test F flooded paddy test; set-up: key: 0 = no effect, 100 = complete control; settings: Flood
From the text: as §1

[3] = test system: late watergrass (Echinochloa oryzicola); test: Test F flooded paddy test; set-up: key: 0 = no effect, 100 = complete control; settings: Flood
From the text: as §1

[4] = test system: Monochoria (Monochoria vaginalis); test: Test F flooded paddy test; set-up: key: 0 = no effect, 100 = complete control; settings: Flood
From the text: as §1

[5] = test system: transplanted rice seedlings (Oryza sativa cv. ‘Japonica—M202’); test: Test F flooded paddy test; set-up: key: 0 = no effect, 100 = complete control; settings: Flood
From the text: as §1

[6] = test system: water seeded rice seedlings (Rice, W. S. Jap, Oryza sativa cv. ‘Japonica—M202’); test: Test F flooded paddy test; set-up: key: 0 = no effect, 100 = complete control; settings: Flood
From the text: as §1

[7] = test system: soybean (Glycine max); test: Test E postemergence; settings: scale 0 to 100
From the text: (§2) Seeds of plant species selected from corn (Zea mays), soybean (Glycine max), velvetleaf (Abutilon theophrasti), lambsquarters (Chenopodium album), poinsettia, wild (wild poinsettia, Euphorbia heterophylla), pigweed, palmer (palmer pigweed, Amaranthus palmeri), waterhemp (common waterhemp, Amaranthus rudis), surinam grass (Brachiaria decumbens), crabgrass, large (large crabgrass, Digitaria sangumnalis), crabgrass, Brazil (Brazilian crabgrass, Digitaria horizontalis), Panicum, fall (fall Panicum, Panicum dichotomiflorum), foxtail, giant (giant foxtail, Setaria faberii), foxtail, green (green foxtail, Setaria viridis), goosegrass (Eleusine indica), johnsongrass (Sorghum halepense), ragweed (common ragweed, Ambrosia elatior), barnyardgrass (Echinochloa crus-galli), sandbur (southern sandbur, Cenchrus echinatus), arrowleaf Sida (Sida rhombifolia), ryegrass, Italian (Italian ryegrass, Lolium multiflorum), dayflower, VA (Virginia dayflower, Commelina virginica), field bindweed (Convolvulus arvensis), morningglory (Ipomoea coccinea), nightshade (eastern black nightshade, Solanum ptycanthum), Kochia (Kochia scoparia), nutsedge, yellow (yellow nutsedge, Cyperus esculentus), horseweed (Conyza canadensis), and beggarticks (hairy beggarticks, Bidens pilosa), were planted into a silt loam soil and treated preemergence with test chemicals formulated in a non-phytotoxic solvent mixture which included a surfactant.
(§3) At the same time, plants selected from these crop and weed species were planted in pots containing Sunshine Redi-Earth planting medium comprising spaghnum peat moss, vermiculite, starter nutrients and dolomitic limestone and treated with postemergence applications of a test chemical formulated in the same manner. Plants ranged in height from 2 to 18 cm (1- to 4-leaf stage) for postemergence treatments. Treated plants and controls were maintained in a greenhouse for 14 to 21 d, after which time all species were compared to controls and visually evaluated. Plant response ratings, summarized in Table E, are based on a scale of 0 to 100 where 0 is no effect and 100 is complete control. A dash (-) response means no test result.

[8] = test system: waterhemp (common waterhemp, Amaranthus rudis); test: Test E postemergence; settings: scale 0 to 100
From the text: as §2, §3

[9] = test system: corn (Zea mays); test: Test E postemergence; settings: scale 0 to 100
From the text: as §2, §3

[10] = test system: crabgrass, large (large crabgrass, Digitaria sangumnalis); test: Test E postemergence; settings: scale 0 to 100
From the text: as §2, §3

[11] = test system: pigweed, palmer (palmer pigweed, Amaranthus palmeri); test: Test E postemergence; settings: scale 0 to 100
From the text: as §2, §3

[12] = test system: foxtail, giant (giant foxtail, Setaria faberii); test: Test E postemergence; settings: scale 0 to 100
From the text: as §2, §3

CN1C[C@H](c2ccc(F)c(F)c2)[C@@H](C(=O)Nc2ccccc2F)C1=O [Compound 596, (3S,4S)-4-(3,4-difluorophenyl)-N-(2-fluorophenyl)-1-methyl-2-oxo-3-pyrrolidinecarboxamide]
Plant response rating: Sprangletop, Brdd. ([1]; 16 g ai/ha): 0 | Plant response rating: Sprangletop, Brdd. ([1]; 32 g ai/ha): 40 | Plant response rating: Sprangletop, Brdd. ([1]; 64 g ai/ha): 85 | Plant response rating: Sprangletop, Brdd. ([1]; 125 g ai/ha): 85 | Plant response rating: Sprangletop, Brdd. ([1]; 250 g ai/ha): 95 | Plant response rating: Barnyardgrass ([2]; 16 g ai/ha): 45 | Plant response rating: Barnyardgrass ([2]; 32 g ai/ha): 65 | Plant response rating: Barnyardgrass ([2]; 64 g ai/ha): 100 | Plant response rating: Barnyardgrass ([2]; 125 g ai/ha): 100 | Plant response rating: Barnyardgrass ([2]; 250 g ai/ha): 100 | Plant response rating: Watergrass, Late ([3]; 16 g ai/ha): 15 | Plant response rating: Watergrass, Late ([3]; 32 g ai/ha): 40 | Plant response rating: Watergrass, Late ([3]; 64 g ai/ha): 85 | Plant response rating: Watergrass, Late ([3]; 125 g ai/ha): 100 | Plant response rating: Watergrass, Late ([3]; 250 g ai/ha): 100 | Plant response rating: Monochoria ([4]; 16 g ai/ha): 25 | Plant response rating: Monochoria ([4]; 32 g ai/ha): 45 | Plant response rating: Monochoria ([4]; 64 g ai/ha): 100 | Plant response rating: Monochoria ([4]; 125 g ai/ha): 100 | Plant response rating: Monochoria ([4]; 250 g ai/ha): 100 | Plant response rating: Rice, Transplanted ([5]; 16 g ai/ha): 0 | Plant response rating: Rice, Transplanted ([5]; 32 g ai/ha): 0 | Plant response rating: Rice, Transplanted ([5]; 64 g ai/ha): 0 | Plant response rating: Rice, Transplanted ([5]; 125 g ai/ha): 0 | Plant response rating: Rice, Transplanted ([5]; 250 g ai/ha): 0 | Plant response rating: Rice, Water Seeded ([6]; 16 g ai/ha): 0 | Plant response rating: Rice, Water Seeded ([6]; 32 g ai/ha): 0 | Plant response rating: Rice, Water Seed. ([6]; 64 g ai/ha): 10 | Plant response rating: Rice, Water Seed. ([6]; 125 g ai/ha): 10 | Plant response rating: Rice, Water Seeded ([6]; 250 g ai/ha): 15

CN1C[C@H](c2ccc(C(F)(F)F)cc2)[C@@H](C(=O)Nc2cccc(F)c2F)C1=O [Compound 623, (3S,4S)—N-(2,3-difluorophenyl)-1-methyl-2-oxo-4-[4-(trifluoromethyl)phenyl]-3-pyrrolidinecarboxamide]
Plant response rating: Soybean ([7]; 16 g ai/ha): 0 | Plant response rating: Soybean ([7]; 31 g ai/ha): 0 | Plant response rating: Soybean ([7]; 62 g ai/ha): 20 | Plant response rating: Soybean ([7]; 125 g ai/ha): 19 | Plant response rating: Soybean ([7]; 250 g ai/ha): 35 | Plant response rating: Waterhemp ([8]; 16 g ai/ha): 11 | Plant response rating: Waterhemp ([8]; 31 g ai/ha): 45 | Plant response rating: Waterhemp ([8]; 62 g ai/ha): 55 | Plant response rating: Waterhemp ([8]; 125 g ai/ha): 65 | Plant response rating: Waterhemp ([8]; 250 g ai/ha): 68 | Plant response rating: Corn ([9]; 16 g ai/ha): 0 | Plant response rating: Corn ([9]; 31 g ai/ha): 0 | Plant response rating: Corn ([9]; 62 g ai/ha): 1 | Plant response rating: Corn ([9]; 125 g ai/ha): 1 | Plant response rating: Corn ([9]; 250 g ai/ha): 4 | Plant response rating: Crabgrass, Large ([10]; 16 g ai/ha): 1 | Plant response rating: Crabgrass, Large ([10]; 31 g ai/ha): 10 | Plant response rating: Crabgrass, Large ([10]; 62 g ai/ha): 10 | Plant response rating: Crabgrass, Large ([10]; 125 g ai/ha): 30 | Plant response rating: Crabgrass, Large ([10]; 250 g ai/ha): 55 | Plant response rating: Pigweed, Palmer ([11]; 16 g ai/ha): 6 | Plant response rating: Pigweed, Palmer ([11]; 31 g ai/ha): 19 | Plant response rating: Pigweed, Palmer ([11]; 62 g ai/ha): 43 | Plant response rating: Pigweed, Palmer ([11]; 125 g ai/ha): 40 | Plant response rating: Pigweed, Palmer ([11]; 250 g ai/ha): 68 | Plant response rating: Foxtail, Giant ([12]; 16 g ai/ha): 5 | Plant response rating: Foxtail, Giant ([12]; 31 g ai/ha): 54 | Plant response rating: Foxtail, Giant ([12]; 62 g ai/ha): 56 | Plant response rating: Foxtail, Giant ([12]; 125 g ai/ha): 78 | Plant response rating: Foxtail, Giant ([12]; 250 g ai/ha): 69
